Test results taken from US11311543B2, “Compositions and methods for inhibiting PTPN22” (YALE UNIVERSITY, priority 2016, dated 2022).

Tested on: PTPN22
Assay: PTPN22 expression by western blot in shRNA-transduced RAMOS B cell line
Format: cell-based
Settings: human RAMOS B cell line, GFP+ shRNA+ vs GFP-
Procedure: FIG. 10A depicts flow cytometry analysis of Ramos B cells transduction efficiency. Ramos B cells were transduced with three different GFP-tagged shRNA PTPN22 expressing lentiviruses and probed for GFP expression. […] Percentage of knock-down is indicated. FIG. 10B depicts the frequencies of polyreactive new emigrant B cells from sorted GFP− fractions were determined. […] For each B-cell fraction, the frequency of reactive (filled area) and non-reactive (open area) clones is summarized in pie charts with the total number of clones tested indicated in the center. FIG. 10C depicts the frequencies of HEp-2 reactive new emigrant B cells from sorted GFP− fractions were determined. […] For each B-cell fraction, the frequency of reactive (filled area) and non-reactive (open area) clones is summarized in pie charts with the total number of clones tested indicated in the center. FIG. 10D depicts the frequencies of antinuclear new emigrant B cells are compared between GFP− and GFP+ shRNA+ new emigrant B cells. […]
Total cell lysates were separated by SDS page, transferred to PVDF membranes, probed with mouse anti-PTPN22 (Invitrogen) and detected by chemiluminescence (Amersham ECL Prime Western Blotting detection Reagent) using a GBox documentation system (Syngene). For quantification, blots were stripped with stripping buffer (Pierce) and reprobed with a mouse anti-β-Actin antibody (Sigma-Aldrich).

## #3: shRNA targeting human PTPN22, 5′-AAGAATCCACCTGACTTCC-3′
  inhibition of PTPN22 expression detected by western blot: about 80%
